Measurements reported in the NIST ThermoML archive (doi:10.1016/j.jct.2010.10.018).

What was measured:
[1] = xn = mol fraction of the nth substance listed; details: 101 kPa, Liquid, Vibrating tube method, x2 = 0
[2] = 101.33 kPa, Liquid, Vibrating tube method

O [water] + CC(C)(C)O
[1]
Details	mass density [kg/m3]
274.15 K	999.899
275.15 K	999.94
276.15 K	999.964
277.15 K	999.972
278.15 K	999.964
279.15 K	999.94
280.15 K	999.901
281.15 K	999.848
282.15 K	999.781
283.15 K	999.699
323.15 K	988.03
333.15 K	983.191
348.15 K	974.838

CC(C)(C)O [2-methylpropan-2-ol]
[2]
Details	mass density [kg/m3]
299.15 K	779.48
303.15 K	775.39
308.15 K	770.15
313.15 K	764.84
318.15 K	759.46
323.15 K	753.94
333.15 K	742.7
348.15 K	725.06
